{"source": "patent US11338012B2", "about": "“BRAF-based polypeptides for treatment of cancer” (UNIVERSITY OF THE SCIENCES, priority 2019, dated 2022)", "key": {"[1]": {"test_system": "MAPK signaling in HEK293 cells overexpressing wild-type BRAF or BRAF^G469A", "test": "Cell-based synergy assay of TAT-braftide with ATP-competitive inhibitors in HEK293 cells overexpressing BRAF^WT or BRAF^G469A", "protocol": "IC50 values were obtained from a dose-response curve (4-parameter logistic equation) in Origin, from three independent experiments. […] Western blots are representative of at least three independent experiments.\nCell lysates were subjected to immunoblotting for the indicated proteins.\nHEK293 cells were plated at one million cells per 2 mL :DMEM supplemented with 10% FBS and 1% L-glutarnine. These cells were incubated at 37° C. with 5% CO2 for 24 hours or until the cells reach a confluency of 40-60%. DNA (1-3 μg) was mixed with PEI-MAX in a 1:3 ratio in Opti-MEM at RT for ˜25 minutes and added onto the cells with fresh media. After 48 hrs, the cells were washed with cold PBS, harvested, lysed with 4% SDS and homogenized. […] The cells were then washed twice with PBS, lysed as above and quantified with the BCA protein assay. Equal amounts of cell lysates were loaded for immunoblotting and then probed for relevant proteins. […] Cells were washed twice with PBS and processed as above. Protein concentrations were determined with BCA assays for immunoblotting.\nThe efficacy of current ATP-competitive BRAF inhibitors is limited to BRAF^V600E that signals as a monomer."}, "[2]": {"test_system": "BRAF^WT/G469A kinase activity in HEK293 cells", "test": "Immunoblotting of HEK293 cells transiently transfected with BRAF^WT/G469A (pMEK, BRAF, MEK levels)", "assay_type": "cell-based", "details": "0-100 μM, 4 hrs", "protocol": "FIGS. 2A-2C illustrate TAT-tagged Braftide inhibits BRAF^WT/G469A kinase activity in HEK293 cells. HEK293 cells transiently transfected with BRAF^WT/G469A were treated with TAT-braftide or TAT peptide at the indicated concentrations (0, 10, 25, 50, 75, and 100 μM) for 4 hrs. Cell lysates were subjected to immunoblotting with the indicated antibodies: anti-BRAF, anti-pMEK, and anti-Actin. FIG. 2A illustrates effect of TAT-braftide on BRAF^WT/G469A kinase activity in HEK293 cells. FIG. 2B illustrates effect of TAT control peptide on BRAF^WT/G469A kinase activity in HEK293 cells. Western blots are representative of at least three independent experiments. The band intensities from the Western Blots were quantified in ImageJ. FIG. 2C illustrates confocal microscopy images of HEK293 cells treated with 25 μM braftide-Cy3 for 2 hr and stained with FLAG antibody for BRAF.\nHEK293 cells were plated at one million cells per 2 mL :DMEM supplemented with 10% FBS and 1% L-glutarnine. These cells were incubated at 37° C. with 5% CO2 for 24 hours or until the cells reach a confluency of 40-60%. DNA (1-3 μg) was mixed with PEI-MAX in a 1:3 ratio in Opti-MEM at RT for ˜25 minutes and added onto the cells with fresh media. After 48 hrs, the cells were washed with cold PBS, harvested, lysed with 4% SDS and homogenized. For peptide assays, 48 hrs post-transfection, cells were treated with TAT-Braftide/TAT control in reduced serum media at the indicated concentrations for 4 hrs. The cells were then washed twice with PBS, lysed as above and quantified with the BCA protein assay. Equal amounts of cell lysates were loaded for immunoblotting and then probed for relevant proteins. […] Protein concentrations were determined with BCA assays for immunoblotting.\nBraftide was conjugated with the TAT sequence ([…]; SEQ ID NO:2), a cell-penetrating peptide widely used in peptide drugs. […] The activity of BRAF was quantified by probing for phospho-MEK1/2. […] A Cy3-tagged version of braftide was synthesized and evaluated for its ability of crossing the plasma membrane using immunofluorescence experiments. […]"}, "BRAF^WT in HEK293 cells": {"biological_target": "T1, BRAF^WT in HEK293 cells (Homo sapiens, UniProt P15056)", "T1 construct": "expressed in transfected cells; host or cells: HEK293", "test": "BRAF degradation: bortezomib rescue and cycloheximide half-life in HEK293 cells", "assay_type": "cell-based", "details": "pre-treated with 0.4 μM Bortezomib 5 hr, then 75 and 100 μM peptide 4 hr", "protocol": "FIG. 3B illustrates quantification of BRAF protein levels after rescue with Bortezomib. […] FIG. 3D illustrates quantification of the Western Blot to determine the half-life (t,1/2) of BRAF. Western blots are representative of at least three independent experiments.\nHEK293 cells transiently transfected with wild-type BRAF were treated with cycloheximide."}, "p61 BRAF^V600E": {"biological_target": "T2, p61 BRAF^V600E (Homo sapiens, UniProt P15056, DEL169-380/V600E)", "T2 construct": "expressed in transfected cells; host or cells: HEK293", "T2 sequence (P15056 with tags, fused parts or gaps DEL169-380/V600E)": "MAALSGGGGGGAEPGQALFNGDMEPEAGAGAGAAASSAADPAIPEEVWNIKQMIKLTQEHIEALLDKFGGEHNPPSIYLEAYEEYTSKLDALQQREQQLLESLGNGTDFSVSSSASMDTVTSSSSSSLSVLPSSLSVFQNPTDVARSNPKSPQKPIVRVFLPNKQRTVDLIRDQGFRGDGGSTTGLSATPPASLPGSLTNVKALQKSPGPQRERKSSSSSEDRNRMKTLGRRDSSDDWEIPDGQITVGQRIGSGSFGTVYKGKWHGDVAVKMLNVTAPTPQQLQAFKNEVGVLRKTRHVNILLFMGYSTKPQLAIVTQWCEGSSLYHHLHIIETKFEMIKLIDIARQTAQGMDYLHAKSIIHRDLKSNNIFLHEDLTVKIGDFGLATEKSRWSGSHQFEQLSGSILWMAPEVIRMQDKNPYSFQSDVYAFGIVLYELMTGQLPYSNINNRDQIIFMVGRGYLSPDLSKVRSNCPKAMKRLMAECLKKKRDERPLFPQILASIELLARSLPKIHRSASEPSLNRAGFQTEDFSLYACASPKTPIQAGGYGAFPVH", "test": "Immunoblotting of HEK293 cells transfected with p61-BRAF^V600E", "assay_type": "cell-based", "details": "increasing concentrations, 4 hr"}, "[3]": {"test_system": "MAPK pathway in the HCT116 cell line", "test": "MAPK pathway inhibition in HCT116 cells (immunoblotting)", "assay_type": "cell-based", "details": "0-75 μM, 4 hr; read-out: IC50 of MAPK pathway inhibition (phospho-MEK, phospho-ERK, degradation of endogenous BRAF and MEK)", "protocol": "(§1) Western blots are representative of at least three independent experiments. […] Cell viability was determined through the WST assay according to manufacturer's instructions. IC50 values were obtained from a dose-response curve (4-parameter logistic equation) in Origin, from three independent experiments."}, "HCT116 cells": {"test_system": "HCT116 cells", "test": "WST cell viability assay, HCT116", "assay_type": "cell-based", "details": "48 hr", "protocol": "as §1\n(§2) Cells were seeded onto poly-lysine coated, clear-bottomed, 96-well plates at 15000 cells per well. […] Upon 48 hr treatment, cell viability was determined through the WST cell viability assay. According to manufacturers' instructions, 10 μL of the WST reagent was added to each well and incubated at 37° C. for 4 hrs. Absorbance readings for the plate were then taken at 450 nm in a Biotek plate reader."}, "HCT-15 cells": {"test_system": "HCT-15 cells", "test": "WST cell viability assay, HCT-15", "assay_type": "cell-based", "details": "48 hr", "protocol": "as §1, §2"}, "[4]": {"details": "dabrafenib alone, wild-type BRAF, 1 hr"}}, "note": "Where no end group is shown, it is not given here.", "data": [{"molecule": "CC(C)(C)c1nc(-c2cccc(NS(=O)(=O)c3c(F)cccc3F)c2F)c(-c2ccnc(N)n2)s1", "note": "[dabrafenib, N-{3-[5-(2-aminopyrimidin-4-yl)-2-tert-butyl-1,3-thiazol-4-yl]-2-fluorophenyl}-2,6-difluorobenzenesulfonamide]", "values": [{"measurement": "concentration at which dabrafenib performed as an inhibitor", "setting": "[1]; [4]", "value": "above 10 μM"}, {"measurement": "effect on MAPK signaling at lower concentrations", "setting": "[1]; [4]", "value": "activated the MAPK signaling at lower concentrations"}]}, {"molecule": "CCCS(=O)(=O)Nc1ccc(F)c(C(=O)c2c[nH]c3ncc(-c4ccc(Cl)cc4)cc23)c1F", "note": "[vemurafenib, N-(3-{[5-(4-Chlorophenyl)-1H-pyrrolo[2,3-b]pyridin-3-yl]carbonyl}-2,4-difluorophenyl)propane-1-sulfonamide]", "values": [{"measurement": "synergy with braftide", "setting": "[1]; braftide 75 μM 2 hr, then vemurafenib 1 hr", "value": "same synergy effect between vemurafenib and braftide was validated"}]}, {"molecule": "Braftide conjugated with the TAT sequence (GRKKRRQRRRPQ; SEQ ID NO:2), a cell-penetrating peptide (GRKKRRQRRRPQTRHVNILLFM; also: possible unspecified modification flagged (lipid/PEG, unknown token)) [TAT-braftide]", "values": [{"measurement": "activity of BRAF (phospho-MEK1/2)", "setting": "[2]", "value": "significantly reduced the activity of BRAF in a dose-dependent manner"}, {"measurement": "protein levels of overexpressed BRAF and endogenous MEK1", "setting": "[2]", "value": "markedly decreased in a dose-dependent manner"}, {"measurement": "kinase activity of BRAF after proteasome inhibition", "setting": "BRAF^WT in HEK293 cells", "value": "still successfully inhibited the kinase activity of BRAF"}, {"measurement": "pMEK and pERK levels", "setting": "p61 BRAF^V600E", "value": "A decrease in both pMEK and pERK levels was observed"}, {"measurement": "protein level of p61", "setting": "p61 BRAF^V600E", "value": "not affected as dramatically as wild-type BRAF"}, {"measurement": "IC50", "setting": "[3]", "value": "< 10", "unit": "µM"}, {"measurement": "EC50", "setting": "HCT116 cells; WST assay, read-out: EC50 of inhibition of cell growth, HCT116", "value": 5, "unit": "µM"}, {"measurement": "EC50", "setting": "HCT-15 cells; WST assay, read-out: EC50 of inhibition of cell growth, HCT-15", "value": 9, "unit": "µM"}]}, {"molecule": "GRKKRRQRRRPQ [TAT peptide, cell-penetrating peptide used as the negative control, reference compound]", "values": [{"measurement": "activity of BRAF (phospho-MEK1/2)", "setting": "[2]", "value": "no inhibition effect was observed"}, {"measurement": "cell death, HCT116", "setting": "HCT116 cells; at concentrations up to 100 μM", "value": "no cell death was observed"}, {"measurement": "cell death, HCT-15", "setting": "HCT-15 cells; at concentrations up to 100 μM", "value": "no cell death was observed"}]}]}
